Data taken from patent US12048317B2, “Astaxanthin-containing condiment and a preparation method therefor” (South China University of Technology, priority 2018, dated 2024).

What was measured:
Format in all cases: physicochemical
[1] = Concentration of astaxanthin in the aqueous supernatant after glass-bead wall breaking of P. rhodozyma (spectrophotometer); conditions: water, 1 mm glass beads 500 g/L, 22° C., 150 rpm
Experimental: Adding P. rhodozyma to 20 mL of water to obtain yeast suspensions with concentrations of 20 g/L, 50 g/L and 100 g/L (dry weight), adding glass beads with a particle size of 1 mm to the yeast suspensions to make the content of the glass beads in the yeast suspensions 500 g/L, and then shaking to break walls in a shaker at 22° C. at a stirring speed of 150 rpm for 48 h. After breaking the wall, centrifuging at 10000 rpm for 10 min, and then collecting the precipitate and supernatant. Extracting astaxanthin in the supernatant with acetone and back-extracting it with petroleum ether, extracting the astaxanthin in the precipitate with acetone, and then using a spectrophotometer to detect the content of astaxanthin in the supernatant and precipitate. Using the amount of astaxanthin extracted by the acid-heat treatment method as a control, i.e., regarding the amount of astaxanthin extracted by the acid-heat treatment method by default as the total amount of astaxanthin for the calculation of the astaxanthin extraction rate.
Adding P. rhodozyma to 20 mL of water to obtain a yeast suspension with a concentration of 20 g/L (dry weight), adding glass beads with a particle size of 1 mm to the yeast suspension to make the content of the glass beads in the yeast suspension 500 g/L, and then shaking to break walls in a shaker at 22° C. at a stirring speed of 150 rpm for 6 h, 24 h and 48 h, respectively. After breaking the wall, centrifuging at 10000 rpm for 10 min, and then collecting the precipitate and supernatant. Extracting astaxanthin in the supernatant with acetone and back-extracting it with petroleum ether, extracting the astaxanthin in the precipitate with acetone, and then using a spectrophotometer to detect the content of astaxanthin in the supernatant and precipitate. Using the amount of astaxanthin extracted by the acid-heat treatment method as a control, i.e., regarding the amount of astaxanthin extracted by the acid-heat treatment method by default as the total amount of astaxanthin for the calculation of the astaxanthin extraction rate.

[2] = Encapsulation rate of the microcapsule powder (total pigment vs pigment on the surface); conditions: Example 4 microcapsules
Experimental: (§1) This example selected the following optimal proportion: Supernatant (V, mL):gelatin (W, g):porous starch (W, g)=400:15:6 (core material (W, g):wall material (W, g)=3.95:21); the microencapsulation temperature was 40° C., and the microencapsulation time was 2 h. The encapsulation rate was calculated by detecting the total amount of pigment in the microcapsule powder and the amount of pigment on the surface (refer to Gomez-Estaca J. Food Hydrocolloids, 2016, 61:155-162). The amount of pigment on the surface was obtained by directly adding acetone for extraction. The total amount of pigment in the microcapsule powder was obtained as follows: dissolving the microcapsule powder in distilled water, shaking and then adding acetone thereto, mixing uniformly and then centrifuging, using petroleum ether to back-extract the pigment, and taking the upper layer of pigment-petroleum ether to measure the absorbance A with a spectrophotometer; if the pigment in the lower layer of acetone was not extracted completely, petroleum ether was added repeatedly until the organic solvent in the lower layer was colorless. Drug-loading rate refers to the amount of pigment contained in each gram of the microcapsule powder.

[3] = Drug-loading rate (amount of pigment contained in each gram of the microcapsule powder); conditions: Example 4 microcapsules
Experimental: as §1

With `CC1=C(/C=C/C(C)=C/C=C/C(C)=C/C=C/C=C(C)/C=C/C=C(C)/C=C/C2=C(C)C(=O)[C@@H](O)CC2(C)C)C(C)(C)C[C@H](O)C1=O` [astaxanthin] the “concentration of astaxanthin in the supernatant after the wall breaking” value (shortened to “concentration of astaxanthin”) ([1]; P. rhodozyma 20 g/L, 6 h) was 93.72 µg/mL, the “concentration of astaxanthin” value ([1]; P. rhodozyma 20 g/L, 24 h) was 306.43 µg/mL and the “concentration of astaxanthin” value ([1]; P. rhodozyma 20 g/L, 48 h) was 459.57 µg/mL. The “concentration of astaxanthin” value ([1]; P. rhodozyma 50 g/L, 48 h) was 843.06 µg/mL, the “concentration of astaxanthin” value ([1]; P. rhodozyma 100 g/L, 48 h) was 1043.17 µg/mL and the “encapsulation rate of astaxanthin” value ([2]; concentration of yeast 20 g/L) was 87.8%. For the same molecule, the “encapsulation rate of astaxanthin” value ([2]; concentration of yeast 50 g/L) was 78.69%, the “encapsulation rate of astaxanthin” value ([2]; concentration of yeast 100 g/L) was 75.62% and the “drug-loading rate of astaxanthin” value ([3]; concentration of yeast 20 g/L) was 3.45 mg/g. For the same molecule, the “drug-loading rate of astaxanthin” value ([3]; concentration of yeast 50 g/L) was 6.79 mg/g and the “drug-loading rate of astaxanthin” value ([3]; concentration of yeast 100 g/L) was 10.42 mg/g.
